Laboratory results published in patent US4468469A, “Substituted phenylacetic acids and salts as TBP blocking agents in iodothyronine immunoassays” (Miles Laboratories, Inc., priority 1982, dated 1984).

Legend:
[1] = Optical absorption spectra; type: physicochemical
[2] = tested on: anti(thyroxine) antiserum / apoglucose oxidase; experiment: Apoenzyme reactivation immunoassay system for serum thyroxine; type: biochemical; settings: 2 mM sodium salt of dissociating agent in buffer
Method: Standard curves for serum thyroxine were generated using a semiautomated assay protocol on the Gilford Clinical Chemistry Analyzer System 203-S (Gilford Instrument Laboratories, Oberline, OH, USA). […] The FAD-thyroxine conjugate (40 nM in 0.1M sodium phosphate, pH 7.0, 0.01% Triton X-100) as a 0.05 ml aliquot was added to the reaction cup and allowed to equilibrate for 30 seconds. The reaction was initiated by addition of 0.10 ml 1.0 μM apoglucose oxidase, 2 mM 4-aminoantipyrine, 12% glycerol, 80 mM sodium phosphate, pH 7.0. The absorbance at 520 nm was recorded after an 8 minute incubation.

[3] = tested on: serum proteins (thyroxine binding protein, TBP); experiment: Effect of pH on the dissociation of iodothyronine from serum proteins; design: species or system human; settings: over the range pH 6.0-8.0; 2.0 mM
Method: Radioactive iodine labeled thyroxine (^125 I-thyroxine obtained from Amersham-Searle, Arlington Heights, IL, USA) was equilibrated with 5 ml of normal human serum for 48 hours at 4° C. […] After 5 minutes of incubation at room temperature, a 165 μl aliquot was applied to a Sephadex® column from a Seralute® thyroxine assay kit (Miles Laboratories, Inc., Ames Division, Elkhart, IN, USA), which had been equilibrated with 0.1M sodium phosphate, pH 7.0. The total radioactivity applied to the columns was measured and the undissociated material was washed through the column with 3 ml of buffer. The columns were counted to determine the percentage of thyroxine dissociated from the serum proteins.
Using the column procedure described in the second study in Example 1, the pH of the 0.1M sodium phosphate was varied and the concentration of the dissociating agent held constant at 2.0 mM. The columns were equilibrated with buffer containing the dissociating agent at the given pH and 165 μl of the serum diluted in buffer at the given pH (as described above) was applied to the column. The total counts were measured and then the columns were washed with buffer at the given pH. The counts remaining on the column represent the percentage of iodothyronine dissociated.

[4] = target: apoglucose oxidase (Aspergillus niger, UniProt P13006); experiment: Activation of apoglucose oxidase by FAD-labeled conjugate (ANS comparison); type: biochemical
Method: For the purposes of comparison, a series of apoenzyme reactivation measurements were set up with different concentrations of the conventionally used blocking agent ANS. The following reagents were prepared:
0.105M potassium phosphate buffer, pH 7.0
1.1% (w:v) bovine serum albumin
5.26 nM FAD-labeled conjugate, supra
4 μM apoglucose oxidase, supra
50 mM phosphate buffer, pH 7.0
Apoenzyme activity was determined by placing 50 μl of Reagent B in a cuvette and starting the reaction by addition of 1.90 ml of Reagent A. The assay reactions were incubated for 10 minutes at room temperature and the absorbances at 520 nm recorded.

[5] = 50 μM solution in 0.1M phosphate buffer, pH 7.0

Chain of apoglucose oxidase (P13006 17-605): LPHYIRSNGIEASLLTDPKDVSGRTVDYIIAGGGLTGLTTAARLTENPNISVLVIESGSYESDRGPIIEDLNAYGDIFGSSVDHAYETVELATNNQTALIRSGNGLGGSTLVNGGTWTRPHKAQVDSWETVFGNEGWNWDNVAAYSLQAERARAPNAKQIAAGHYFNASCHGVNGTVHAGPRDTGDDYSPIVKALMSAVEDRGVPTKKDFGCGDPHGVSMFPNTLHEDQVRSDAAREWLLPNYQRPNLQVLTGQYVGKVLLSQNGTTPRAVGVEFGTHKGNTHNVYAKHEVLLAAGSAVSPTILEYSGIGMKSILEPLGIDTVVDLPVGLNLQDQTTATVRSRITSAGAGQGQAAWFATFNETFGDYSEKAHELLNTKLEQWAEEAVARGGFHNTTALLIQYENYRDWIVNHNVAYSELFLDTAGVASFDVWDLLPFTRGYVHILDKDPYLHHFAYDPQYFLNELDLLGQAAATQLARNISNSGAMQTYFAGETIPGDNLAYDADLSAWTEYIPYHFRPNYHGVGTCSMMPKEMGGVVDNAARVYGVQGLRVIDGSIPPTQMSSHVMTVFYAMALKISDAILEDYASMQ

Row | Compound | λmax ([1]; in 0.1M sodium hydroxide) [nanometers] | λmin ([1]; in 0.1M sodium hydroxide) [nanometers] | ε min (NaOH), extinction coefficient ([1]; in 0.1M sodium hydroxide, at λmin) [M⁻¹ cm⁻¹] | Absorbance (520 nm) ([2]; Thyroxine Standard 0 μg/L) | Absorbance (520 nm) ([2]; Thyroxine Standard 25 μg/L) | Absorbance (520 nm) ([2]; Thyroxine Standard 75 μg/L) | Absorbance (520 nm) ([2]; Thyroxine Standard 125 μg/L) | Absorbance (520 nm) ([2]; Thyroxine Standard 200 μg/L) | pH dependence of the dissociation of iodothyronine from serum proteins [3] | broad absorption band [1, 5] | wavelength of absorption peak [1, 5] | absorption peak height ([1]; 50 μM solution in 0.1M phosphate buffer, pH 7.0, at about 350 nm) | activity at 100 µM ([4]; 10 min, pH 7, 0.1 mM ANS in Reagent A, room temperature, read-out: Percent Apoglucose Oxidase Activity) [%] | activity at 200 µM ([4]; 10 min, pH 7, 0.2 mM ANS in Reagent A, room temperature, read-out: Percent Apoglucose Oxidase Activity) [%] | activity at 500 µM ([4]; 10 min, pH 7, 0.5 mM ANS in Reagent A, room temperature, read-out: Percent Apoglucose Oxidase Activity) [%] | activity at 1000 µM ([4]; 10 min, pH 7, 1.0 mM ANS in Reagent A, room temperature, read-out: Percent Apoglucose Oxidase Activity) [%] | effect on the recombination reaction of apoglucose oxidase and FAD-labeled conjugate ([4]; ANS concentrations above about 1.0 mM)
1 | O=C(O)Cc1ccccc1Nc1c(Cl)cccc1Cl [Diclofenac, 2-(2,6-dichlorophenylamino)phenylacetic acid] | 275 | 248 | 6400 | 0.619 | 0.620 | 0.647 | 0.678 | 0.719 | independent of pH | – | – | – | – | – | – | – | –
2 | O=S(=O)(O)c1cccc2cccc(Nc3ccccc3)c12 [ANS, 8-anilino-1-naphthalenesulfonic acid] | – | – | – | – | – | – | – | – | – | 300-400 nm | about 350 nm | 0.5 | 64 | 46 | 13 | 0 | totally inhibit
